Results from PubChem BioAssay (NCI).
“And” between values parts separate entries of the source, which are not always exact repeats. Identical values can stand only once.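 1) Cells in 96-well plates. 2) Compound, 48 h, 5 concentrations. 3) Linear interpolation between surrounding doses. 4) Unreached endpoint = highest concentration. GI50 = concentration required for 50% inhibition of growth. The concentration for full growth arrest is given as TGI.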

Tests used:
Test in all cases: NCI tumour cell line growth inhibition, 48 h
786-0 renal = system: 786-0 renal
ACHN renal = system: ACHN renal
K-562 leukemia = system: K-562 leukemia
LOX IMVI melanoma = system: LOX IMVI melanoma
MALME-3M melanoma = system: MALME-3M melanoma
NCI-H23 lung = system: NCI-H23 lung
OVCAR-5 ovarian = system: OVCAR-5 ovarian
RXF 393 renal = system: RXF 393 renal
SF-295 CNS = system: SF-295 CNS
HOP-92 NSCLC = system: HOP-92 NSCLC

C/C(=C\c1ccccc1)C(O)S(=O)(=O)O (stereo not drawn)
TGI (786-0 renal): > 100 µM | TGI (ACHN renal): > 100 µM | TGI (K-562 leukemia): > 100 µM | TGI (LOX IMVI melanoma): > 100 µM | TGI (MALME-3M melanoma): > 100 µM | TGI (NCI-H23 lung): > 100 µM | TGI (OVCAR-5 ovarian): > 100 µM | TGI (RXF 393 renal): > 100 µM | TGI (SF-295 CNS): > 100 µM

NCC(=O)OCN1C(=O)C2C3C=CC(C2C1=O)C1C2C(=O)N(COC(=O)CN)C(=O)C2C31 (stereo not drawn)
TGI (786-0 renal): 40.7 µM and 36.8 µM | TGI (ACHN renal): 67.6 µM and 62.1 µM | TGI (HOP-92 NSCLC): > 100 µM | TGI (K-562 leukemia): 60.9 µM and > 100 µM | TGI (LOX IMVI melanoma): 37.9 µM | TGI (NCI-H23 lung): 49.1 µM and 84.7 µM | GI50 (OVCAR-5 ovarian): 42.1 µM and 90 µM | TGI (OVCAR-5 ovarian): > 100 µM | TGI (RXF 393 renal): 37.9 µM and 42.3 µM | TGI (SF-295 CNS): > 100 µM

CC(=O)N1C(=O)C(=O)c2cc(Cl)ccc21
TGI (786-0 renal): > 100 µM | TGI (ACHN renal): > 100 µM | TGI (K-562 leukemia): > 100 µM | TGI (LOX IMVI melanoma): > 100 µM | TGI (MALME-3M melanoma): > 100 µM | TGI (NCI-H23 lung): > 100 µM | TGI (OVCAR-5 ovarian): > 100 µM | TGI (RXF 393 renal): > 100 µM | TGI (SF-295 CNS): > 100 µM

CC1=C(CC/C(C)=C/CCC2(C)CCC([C@H](C)C(=O)O)OO2)C(C)(C)CCC1 (stereo partly drawn) (tested in a mixture with another compound)
TGI (786-0 renal): > 100 µM | TGI (ACHN renal): > 100 µM | TGI (HOP-92 NSCLC): > 100 µM | TGI (LOX IMVI melanoma): > 100 µM | TGI (MALME-3M melanoma): > 100 µM | TGI (NCI-H23 lung): > 100 µM | TGI (OVCAR-5 ovarian): > 100 µM | TGI (RXF 393 renal): > 100 µM | TGI (SF-295 CNS): > 100 µM

O=C1c2ccccc2C(=O)N1C/C=N/NS(=O)(=O)c1ccc(Cl)cc1
TGI (786-0 renal): > 100 µM | TGI (ACHN renal): > 100 µM | TGI (K-562 leukemia): > 100 µM | TGI (LOX IMVI melanoma): > 100 µM | TGI (MALME-3M melanoma): > 100 µM | TGI (NCI-H23 lung): > 100 µM | TGI (SF-295 CNS): > 100 µM

S=C(S)NCCCn1ccnc1
TGI (786-0 renal): > 100 µM | TGI (ACHN renal): > 100 µM | TGI (HOP-92 NSCLC): > 100 µM | TGI (K-562 leukemia): > 100 µM | TGI (LOX IMVI melanoma): > 100 µM | TGI (MALME-3M melanoma): > 100 µM | TGI (NCI-H23 lung): > 100 µM | TGI (OVCAR-5 ovarian): > 100 µM | TGI (SF-295 CNS): > 100 µM

CCN(CC)CCNc1ccc(CO)c2sc3ccccc3c(=O)c12
GI50 (786-0 renal): 4.99 µM and 19.4 µM | TGI (786-0 renal): 18.8 µM and 52.1 µM | GI50 (ACHN renal): 2.35 µM and 6.73 µM and 2.58 µM | TGI (ACHN renal): 7.94 µM and 24.5 µM and 15.9 µM | GI50 (HOP-92 NSCLC): 1.91 µM and 5.36 µM | TGI (HOP-92 NSCLC): 15 µM and 14.9 µM and 17.9 µM | GI50 (NCI-H23 lung): 3.14 µM and 13.6 µM | TGI (NCI-H23 lung): 16.4 µM and 22.7 µM and 29.3 µM | GI50 (OVCAR-5 ovarian): 5.05 µM | TGI (OVCAR-5 ovarian): 25.1 µM [middle of 4 runs] | GI50 (RXF 393 renal): 2.23 µM and 7.35 µM | TGI (RXF 393 renal): 8.45 µM and 19 µM and 20.3 µM | GI50 (SF-295 CNS): 2.98 µM and 5.31 µM | TGI (SF-295 CNS): 21.1 µM [middle of 4 runs]

COc1ccccc1NC(=O)N/C(N)=N/c1nc2ccccc2s1
GI50 (786-0 renal): 0.288 µM | TGI (786-0 renal): > 100 µM | GI50 (ACHN renal): 0.327 µM | TGI (ACHN renal): > 100 µM | GI50 (HOP-92 NSCLC): > 23.4 µM | TGI (HOP-92 NSCLC): > 100 µM | GI50 (K-562 leukemia): 0.0351 µM | TGI (K-562 leukemia): > 100 µM | GI50 (LOX IMVI melanoma): 0.145 µM | TGI (LOX IMVI melanoma): > 100 µM | GI50 (NCI-H23 lung): 0.15 µM | TGI (NCI-H23 lung): > 100 µM | GI50 (OVCAR-5 ovarian): 0.42 µM | TGI (OVCAR-5 ovarian): > 100 µM | GI50 (RXF 393 renal): 0.0402 µM | TGI (RXF 393 renal): 0.731 µM | GI50 (SF-295 CNS): 0.0418 µM

COc1ccc(CNCCCN2C(=O)c3ccc4c5c(ccc(c35)C2=O)C(=O)N(CCCNCCCCNCCCN)C4=O)c(OC)c1OC
GI50 (786-0 renal): 3.53 µM | TGI (786-0 renal): 22.5 µM | GI50 (K-562 leukemia): 0.761 µM | TGI (K-562 leukemia): 12.7 µM | GI50 (LOX IMVI melanoma): 0.654 µM | TGI (LOX IMVI melanoma): 7.83 µM | GI50 (MALME-3M melanoma): 1.21 µM | TGI (MALME-3M melanoma): 2.76 µM | GI50 (NCI-H23 lung): 1.35 µM | TGI (NCI-H23 lung): 4.22 µM | GI50 (RXF 393 renal): 1.36 µM | TGI (RXF 393 renal): 3.67 µM | GI50 (SF-295 CNS): 2.35 µM | TGI (SF-295 CNS): 15.9 µM

Cc1cc2cc(Oc3ccnc(Nc4cccc(CS(=O)(=O)NCCN(C)C)c4)n3)ccc2[nH]1
GI50 (786-0 renal): 4.46 µM | TGI (786-0 renal): 17 µM | GI50 (ACHN renal): 7.22 µM | TGI (ACHN renal): 20.3 µM | GI50 (HOP-92 NSCLC): 1.78 µM | TGI (HOP-92 NSCLC): 5.68 µM | GI50 (LOX IMVI melanoma): 3.51 µM | TGI (LOX IMVI melanoma): 15 µM | GI50 (MALME-3M melanoma): 2.96 µM | TGI (MALME-3M melanoma): 10.5 µM | GI50 (NCI-H23 lung): 8.8 µM | TGI (NCI-H23 lung): 23.6 µM | GI50 (OVCAR-5 ovarian): 5.29 µM | TGI (OVCAR-5 ovarian): 19.5 µM | GI50 (RXF 393 renal): 3.48 µM | TGI (RXF 393 renal): 15.8 µM | GI50 (SF-295 CNS): 8.04 µM | TGI (SF-295 CNS): 21.5 µM

CCC1N2CCCCC2[C@@H]2c3[nH]c4ccccc4c3CCN12 (stereo partly drawn)
TGI (786-0 renal): > 100 µM | TGI (ACHN renal): > 100 µM | TGI (HOP-92 NSCLC): > 100 µM | TGI (K-562 leukemia): > 100 µM | TGI (MALME-3M melanoma): > 100 µM | TGI (NCI-H23 lung): > 100 µM | TGI (OVCAR-5 ovarian): > 100 µM | TGI (RXF 393 renal): > 100 µM | TGI (SF-295 CNS): > 100 µM

Cn1c(-c2c(N)n(Cc3ccc(Cl)cc3)c3nc(C#N)c(C#N)nc23)nc2ccccc21
GI50 (786-0 renal): 7.69 µM | TGI (786-0 renal): 17.4 µM | GI50 (ACHN renal): 1.5 µM | TGI (ACHN renal): 6.38 µM | GI50 (HOP-92 NSCLC): 2.35 µM | TGI (HOP-92 NSCLC): 10.1 µM | GI50 (K-562 leukemia): 17.3 µM | TGI (K-562 leukemia): > 50 µM | GI50 (LOX IMVI melanoma): 1.14 µM | TGI (LOX IMVI melanoma): 5.68 µM | GI50 (NCI-H23 lung): 1.18 µM | TGI (NCI-H23 lung): 2.48 µM | GI50 (OVCAR-5 ovarian): 6.74 µM | TGI (OVCAR-5 ovarian): 16 µM | GI50 (RXF 393 renal): 0.567 µM | TGI (RXF 393 renal): 4.67 µM | GI50 (SF-295 CNS): 6.28 µM | TGI (SF-295 CNS): 40.5 µM

COc1cc2c(C#N)n3c(c2cc1OC)C(=O)C(c1ccccc1)Oc1ccccc1-3 (stereo not drawn)
GI50 (786-0 renal): 5.7 µM | TGI (786-0 renal): 39.1 µM | GI50 (HOP-92 NSCLC): 1.46 µM | TGI (HOP-92 NSCLC): 5.52 µM | GI50 (K-562 leukemia): 3.08 µM | TGI (K-562 leukemia): > 100 µM | GI50 (LOX IMVI melanoma): 3.18 µM | TGI (LOX IMVI melanoma): > 100 µM | GI50 (MALME-3M melanoma): > 100 µM | TGI (MALME-3M melanoma): > 100 µM | GI50 (NCI-H23 lung): 3.04 µM | TGI (NCI-H23 lung): > 100 µM | GI50 (RXF 393 renal): 3.29 µM | TGI (RXF 393 renal): 19.5 µM | GI50 (SF-295 CNS): 4.1 µM | TGI (SF-295 CNS): > 100 µM

CC(=O)C1C(=O)C(=O)N(c2ccc(Cl)cc2C)C1=O (stereo not drawn)
TGI (786-0 renal): > 100 µM | TGI (ACHN renal): > 100 µM | TGI (HOP-92 NSCLC): > 100 µM | TGI (K-562 leukemia): > 100 µM | TGI (MALME-3M melanoma): > 100 µM | TGI (NCI-H23 lung): > 100 µM | TGI (OVCAR-5 ovarian): > 100 µM | TGI (RXF 393 renal): > 100 µM | TGI (SF-295 CNS): > 100 µM

CC(C)[C@H](COC(C)(C)C)N=CN1CSc2ccccc21
TGI (786-0 renal): > 100 µM | TGI (ACHN renal): 71.4 µM | TGI (HOP-92 NSCLC): 41.9 µM | TGI (K-562 leukemia): > 100 µM | TGI (LOX IMVI melanoma): 93.2 µM | TGI (NCI-H23 lung): > 100 µM | TGI (OVCAR-5 ovarian): > 100 µM | TGI (RXF 393 renal): 95.2 µM | TGI (SF-295 CNS): 67.4 µM

COc1ccc(OC)c(-c2cn3nc(-c4c[nH]c5ccc(Br)cc45)sc3n2)c1
GI50 (786-0 renal): 2.16 µM | TGI (786-0 renal): 4.57 µM | GI50 (ACHN renal): 2.02 µM | TGI (ACHN renal): 6.49 µM | GI50 (HOP-92 NSCLC): 2.01 µM | TGI (HOP-92 NSCLC): 5.68 µM | GI50 (MALME-3M melanoma): 2.25 µM | TGI (MALME-3M melanoma): 4.93 µM | GI50 (NCI-H23 lung): 1.99 µM | TGI (NCI-H23 lung): 4.82 µM | GI50 (OVCAR-5 ovarian): 3.52 µM | TGI (OVCAR-5 ovarian): 15.6 µM | GI50 (RXF 393 renal): 3.19 µM | TGI (RXF 393 renal): 8.82 µM | GI50 (SF-295 CNS): 4.7 µM | TGI (SF-295 CNS): 16.3 µM

COc1cc2c(c(OC)c1OC)C(=O)c1c-2n(CCCN)c(=O)c2cc([N+](=O)[O-])ccc12
GI50 (786-0 renal): 0.481 µM | TGI (786-0 renal): 1.04 µM | GI50 (K-562 leukemia): 2.86 µM | TGI (K-562 leukemia): 7.98 µM | GI50 (NCI-H23 lung): 1.52 µM | TGI (NCI-H23 lung): 3.81 µM | GI50 (OVCAR-5 ovarian): 1.61 µM | TGI (OVCAR-5 ovarian): 3.04 µM | GI50 (SF-295 CNS): 1.64 µM | TGI (SF-295 CNS): 3.39 µM
